Reference: US5112872A, “Antispasmodic agent” (Taiko Pharmaceutical Co., Ltd., priority 1989, dated 1992)
Like-named read-outs stand apart in the source and are kept apart here.

Assays:
strips of the ileum = assay: 100% inhibition of peristaltic motility of ileum strips, Pharmacological Test 1(b); set-up: species or system guinea pig (female Hartley); conditions: for IC100: Cavia porcellus, read-out: IC100 (dose causing 100% inhibition of the motility of the strip)
Procedure: (b) Experiments on the inhibition of peristaltic motility of intestinal strips were carried out in the same manner as Experiment (a) except that guaiacol, creosol, cresol, phenol and xylenol, all of which are components of creosote, were respectively used in lieu of creosote.

in vivo = conditions: rat, po

COc1cc(C)ccc1O [Creosol, creosol]
antispasmodic activity (inhibition of intestinal motility), in words (strips of the ileum): antispasmodic activity comparable to that of creosote | IC100 (strips of the ileum; strips of the ileum): 100 µg/mL

COc1ccccc1O [Guaiacol, guaiacol]
LD50 (in vivo): 725 mg/kg | antispasmodic activity (inhibition of intestinal motility), in words (strips of the ileum): antispasmodic activity comparable to that of creosote | IC100 (strips of the ileum; strips of the ileum): 100 µg/mL

Oc1ccccc1 [Phenol, phenol]
LD50 (in vivo): 530 mg/kg | antispasmodic activity (inhibition of intestinal motility), in words (strips of the ileum): antispasmodic activity comparable to that of creosote | IC100 (strips of the ileum): 100 µg/mL

Cc1cccc(O)c1 [m-Cresol]
LD50 (in vivo): 2020 mg/kg

Cc1ccccc1O [o-Cresol]
LD50 (in vivo): 1350 mg/kg

Cc1ccc(O)cc1 [p-Cresol]
LD50 (in vivo): 1800 mg/kg

cresol
antispasmodic activity (inhibition of intestinal motility), in words (strips of the ileum): antispasmodic activity comparable to that of creosote | IC100 (dose causing 100% inhibition of the motility of the strip) (strips of the ileum; strips of the ileum): 0.0001 g/mL

xylenol
antispasmodic activity (inhibition of intestinal motility), in words (strips of the ileum): antispasmodic activity comparable to that of creosote | IC100 (dose causing 100% inhibition of the motility of the strip) (strips of the ileum; strips of the ileum): 0.0001 g/mL
